According to US20200289474A1, “METHODS OF TREATING PAIN WITH A THIAZOLINE ANTI-HYPERALGESIC” (priority 2019, published 2020):
“Also recorded” adds a separate entry of the source. Like-named read-outs stand apart in the source and are kept apart here.

How the values were obtained:
[1] = solubility in organic/aqueous solvents; assay type: physicochemical
HEK293 cells = assay: cytotoxicity by lactate dehydrogenase (LDH) release; assay type: cell-based
PN-mediated cytotoxicity = assay: cell-based assays of PN-mediated cytotoxicity
OATP1B1 = target: T1, OATP1B1 (Homo sapiens, UniProt Q9Y6L6); assay: transporter inhibition, HEK293 cells, probe accumulation; assay type: in vitro ADME
T1 construct: expressed in transfected cells; host or cells: HEK293 cells
T1 sequence (Q9Y6L6 1-691): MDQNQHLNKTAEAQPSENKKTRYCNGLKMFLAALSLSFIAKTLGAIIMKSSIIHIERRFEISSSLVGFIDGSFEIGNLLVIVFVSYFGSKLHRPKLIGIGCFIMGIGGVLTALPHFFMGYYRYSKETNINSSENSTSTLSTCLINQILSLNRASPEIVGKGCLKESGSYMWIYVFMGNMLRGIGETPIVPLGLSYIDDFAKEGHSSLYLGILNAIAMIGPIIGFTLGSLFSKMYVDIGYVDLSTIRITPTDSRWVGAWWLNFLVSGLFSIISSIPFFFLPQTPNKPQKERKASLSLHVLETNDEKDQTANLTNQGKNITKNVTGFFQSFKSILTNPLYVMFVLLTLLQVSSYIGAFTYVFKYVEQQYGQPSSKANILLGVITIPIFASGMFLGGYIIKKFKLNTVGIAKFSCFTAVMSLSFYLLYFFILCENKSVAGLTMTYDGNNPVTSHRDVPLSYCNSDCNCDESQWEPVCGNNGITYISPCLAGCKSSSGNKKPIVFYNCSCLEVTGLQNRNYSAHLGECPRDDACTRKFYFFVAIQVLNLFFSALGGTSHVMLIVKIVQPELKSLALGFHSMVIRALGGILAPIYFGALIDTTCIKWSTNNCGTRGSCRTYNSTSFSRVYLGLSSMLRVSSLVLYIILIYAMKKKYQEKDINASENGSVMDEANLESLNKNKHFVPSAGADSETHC

normal sensation = normal sensation in uninjured animals
BCRP = target: T2, BCRP (Homo sapiens, UniProt Q9UNQ0); assay: transporter inhibition, MDCKII-BCRP cells, prazosin transport; assay type: in vitro ADME
T2 construct: expressed in transfected cells
T2 sequence (Q9UNQ0 1-655): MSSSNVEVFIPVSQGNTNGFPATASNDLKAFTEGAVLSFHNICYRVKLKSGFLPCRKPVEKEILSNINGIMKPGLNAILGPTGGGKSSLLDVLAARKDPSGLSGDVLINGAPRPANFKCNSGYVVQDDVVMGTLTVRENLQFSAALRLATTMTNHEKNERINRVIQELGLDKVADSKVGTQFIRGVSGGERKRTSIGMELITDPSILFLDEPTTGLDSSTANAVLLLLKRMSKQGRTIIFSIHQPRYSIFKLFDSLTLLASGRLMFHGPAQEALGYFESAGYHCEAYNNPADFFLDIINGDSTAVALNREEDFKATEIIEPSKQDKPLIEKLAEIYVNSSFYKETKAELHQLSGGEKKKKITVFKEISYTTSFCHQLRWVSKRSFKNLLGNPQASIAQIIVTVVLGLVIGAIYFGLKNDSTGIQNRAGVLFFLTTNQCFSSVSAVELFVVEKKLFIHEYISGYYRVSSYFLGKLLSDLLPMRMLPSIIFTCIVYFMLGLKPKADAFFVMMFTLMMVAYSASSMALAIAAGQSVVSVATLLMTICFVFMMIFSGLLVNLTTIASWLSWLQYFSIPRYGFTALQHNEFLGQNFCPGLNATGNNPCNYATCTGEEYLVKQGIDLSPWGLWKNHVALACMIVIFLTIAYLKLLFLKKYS

[2] = tested on: incision-induced hyperalgesia; assay: Brennan incisional model, prophylactic paradigm; assay type: in vivo, rat
Excerpt: Two incisional pain models were used to assess Compound 1 effects on hyperalgesia. The first model is referred to as the Brennan model in which, under anesthesia, a 1 cm longitudinal incision to the skin and underlying fascia of a rat hindpaw is made. The second is a variation but is a more invasive procedure in which the skin and muscle are spread apart using forceps which creates a longer-lasting hypersensitivity.
Using the Brennan protocol and a prophylactic paradigm, Compound 1 (3 doses given PO) or vehicle was administered 15 min prior to incision. At the 24-, 48-, and 72-h time points post-incision, mechanical thresholds were obtained (manual von Frey filament, using up/down method).
In a subsequent experiment, the same paradigm was used with Compound 1 administered at a dose of 30 mg/kg PO along with positive control group consisting of celecoxib (30 mg/kg PO), morphine (10 mg/kg SC), and vehicle.

[3] = dog 28-day repeat dose PO study; assay type: in vivo; details: for Cmax: dog 28 Day PO
Procedure: Beagle dogs (4/sex/group plus 2/sex/group for control and high dose animals for recovery) were administered daily doses of 0, 100, 250 or 400 mg/kg/day of Compound 1 in 0.5% HPMC. […] Dogs in Group 1 (Vehicle Control) were bled once at approximately 2-4 hours post-dose on those days.

[4] = beagle dog single dose study IV 10 mg/kg, oral 10 and 100 mg/kg; assay type: in vivo; details: fasted beagle dogs
Procedure: In another study Compound 1 was administered IV as a single dose to fasted beagle dogs at 10 mg/kg and orally at 10 and 100 mg/kg. Compound 1 was rapidly and well absorbed orally, within 1 hr, reaching peak plasma concentrations of 15 and 108 μg/mL at 10 and 100 mg/kg doses, respectively. The compound distributed readily in tissues with a moderate steady-state volume of distribution (0.3 L/kg).

allodynia = assay: methylglyoxal-induced diabetic neuropathy model; assay type: in vivo; details: rat

In the case of CC1(C)SC(Nc2ccccc2O)=N[C@@H]1C(=O)O.Cl [Compound 1, (R)-2-(2-hydroxyphenylamino)-5,5-dimethyl-4,5-dihydrothiazole-4-carboxylic acid mono-hydrochloride], the solubility ([1]; in 2-propanol, ethanol, 10% water: isopropyl acetate, 10% water/tetrahydrofuran, and water) is reported as “sparingly soluble”, the solubility ([1]; in methanol and tert-butyl alcohol: water (1:1)) is reported as “freely soluble” and the solubility ([1]; in n-heptane, toluene, acetone, tetrahydrofuran, ethyl acetate, isopropyl acetate, t-butyl methyl ether, t-butyl alcohol) is reported as “less than sparingly soluble”. For the same compound, the “cytotoxicity (LDH release)” value (HEK293 cells) was “less than 25%”, the “effect in PN-mediated cytotoxicity” value (PN-mediated cytotoxicity) was “protective” and the “inhibition” value (OATP1B1) was “does not inhibit”. For the same compound, the “effect on normal sensation” value (normal sensation) was “does not alter normal sensation”, the “inhibition” value (BCRP) was “modestly inhibits” and the “hyperalgesia, effect relative to vehicle” value ([2]; 10 mg/kg PO single dose 15 min prior to incision, mono-hydrochloride) was “statistically significant reversal of hyperalgesia; also recorded: statistically significant effect”. For the same compound, the “hyperalgesia, effect relative to vehicle” value ([2]; 30 mg/kg PO single dose) was “full efficacy”, the “hyperalgesia, mechanical thresholds (von Frey) relative to vehicle” value ([2]; 3 doses PO, 15 min prior to incision, 24, 48, 72 h post-incision) was “reversal of hyperalgesia in a dose-dependent manner” and the Tmax at 28 days ([3]; both sexes, beagle, dog, in vivo, po, dog 28-day PO, all animals, read-out: median tmax) was 1 h. The Tmax at 28 days ([3]; both sexes, beagle, dog, in vivo, po, dog 28-day study (summary), read-out: Tmax) was at most 1 h, the Cmax at 28 days ([3]; both sexes, beagle, in vivo, po, dog 28-day pivotal study, at some doses) was over 100 µg/mL and the “mean t1/2” value ([3]; both, beagle, dog, in vivo, po) was 3.5 h. The Cmax ([3]; Day 1, 100 mg/kg, F) was 69.3 µg/mL, the Cmax ([3]; Day 1, 100 mg/kg, M) was 49.9 µg/mL and the Cmax ([3]; Day 1, 250 mg/kg, F) was 101 µg/mL. For the same compound, the Cmax ([3]; Day 1, 250 mg/kg, M) was 104 µg/mL, the Cmax ([3]; Day 1, 400 mg/kg, F) was 129 µg/mL and the Cmax ([3]; Day 1, 400 mg/kg, M) was 128 µg/mL. For the same compound, the Cmax ([3]; Day 15, 100 mg/kg, F) was 53.0 µg/mL, the Cmax ([3]; Day 15, 100 mg/kg, M) was 50.4 µg/mL and the Cmax ([3]; Day 15, 250 mg/kg, F) was 94.6 µg/mL. The Cmax ([3]; Day 15, 250 mg/kg, M) was 88.0 µg/mL, the Cmax ([3]; Day 15, 400 mg/kg, F) was 123 µg/mL and the Cmax ([3]; Day 15, 400 mg/kg, M) was 112 µg/mL. It also gave a Cmax ([3]; Day 28, 100 mg/kg, F) of 60.8 µg/mL, a Cmax ([3]; Day 28, 100 mg/kg, M) of 45.0 µg/mL and a Cmax ([3]; Day 28, 250 mg/kg, F) of 89.5 µg/mL. For the same compound, the Cmax ([3]; Day 28, 250 mg/kg, M) was 105 µg/mL, the Cmax ([3]; Day 28, 400 mg/kg, F) was 131 µg/mL and the Cmax ([3]; Day 28, 400 mg/kg, M) was 125 µg/mL. For the same compound, the mean terminal half-life [4] was 3.9 h, the “steady-state volume of distribution” value [4] was 0.3 L/kg and the oral bioavailability ([4]; both 10 and 100 mg/kg) was 75%. For the same compound, the peak plasma concentration ([4]; oral 10 mg/kg) was 15 µg/mL, the peak plasma concentration ([4]; oral 100 mg/kg) was 108 µg/mL and the “time to peak plasma concentration” value ([4]; oral 10 and 100 mg/kg) was at most 1 h. For the same compound, the “effect on allodynia, methylglyoxal-induced diabetic neuropathy” value (allodynia) was “alleviates allodynia”.
